Experimental data taken from patent US11832638B2, “N-acyl derivatives of gamma amino-butyric acid and beta alanine as food flavouring compounds” (GIVAUDAN SA, priority 2012, dated 2023).

Key:
[1] = Tasting in fish based product (fish sauce)
Description: The following formulations were prepared and tasted by trained panelists.
Salt level pure product between 5-40%
Salt level in application 0.3-1.0%
C18:2-gaba-(0.5 ppm) was added to a 1% diluted fish sauce sauce (0.27% salt).
C18:2-gaba-(0.5 ppm) was added to pure fish sauce (27% salt).

[2] = Tasting of chicken filet fried in oil; conditions: 2.0 PPM in 135 gram frying oil (82% fat)
Description: Differentiator high temperature 100-250 degrees Celsius in a frying in oil process
C18:2-gaba @ 2.0 PPM in 135 gram frying oil (blue band 82% Fat) 450 gram chicken filet 2 minutes high fire and 5 minutes medium fire.

[3] = Vanilla flavoured milk 3.0% fat; conditions: 2 ppm, 4% sugar, vanillin 10 ppm, vanilla extract 0.03%
Description: Vanilla Flavoured Milk 3.0% Fat
In a 3% fat milk drink, sweetened with 4% sucrose by weight, flavoured with Vaniline @ 10 ppm and a Vanilla extract @ 0.03% C18:2-gaba, was added at 0.5 or 2 ppm.
Samples were evaluated by expert tasters. Tasters were asked to describe the samples focusing on authentic taste, mouthfeel, fullness, salivation, sweetness, juiciness, richness, long lastingness and fattiness.
Base: Milk 3% fat, 4% sugar, vanillin 10 ppm, vanilla extract 0.03%

[4] = Test on Kikkoman soy sauce low salt; conditions: 0.5 ppm
Excerpt: Test on Kikkoman Soy Sauce Low Salt
Base is Kikkoman soy sauce

[5] = Test in peach flavoured drink; conditions: 1 ppm, water, 8% sugar, 0.1% citric acid, peach flavour 0.05%
Excerpt: Test in Peach Flavoured Drink:
Base is water, 8% sugar, 0.1% citric acid, and proprietary peach flavour at 0.05%

CCCCC/C=C\C/C=C\CCCCCCCC(=O)NCCCC(=O)O [C18:2-gaba]
tasting result (trained panelists) ([1]; 0.5 ppm in 1% diluted fish sauce (0.27% salt)): stronger in umami, longer lasting and richer
tasting result (trained panelists) ([1]; 0.5 ppm in pure fish sauce (27% salt)): strong in body and mouthfeel, more salty, richer with more rounded fish notes
taste of the chicken ([2]; 450 gram chicken filet, 2 minutes high fire and 5 minutes medium fire): more juicy, succulent, lingering more white meat
taste of the frying oil ([2]; after frying chicken filet): more savoury golden brown notes
description by expert tasters [3]: beany, fatty, authentic, sweet
taste description [4]: much more salty, sweet and long lasting
taste description [5]: fruity peach, long lasting, juicy and fatty skin like very authentic
